Molecules are shown by their SMILES. In brackets after ≈: the same amount, converted by molar mass.

One may read the solubility as the dissolved amount per volume that the medium holds. What is called IC50 is the concentration needed to halve the response being measured.

Chain of KRAS (G12D)::SOS1 protein-protein interaction (P01116 other isoform, or with tags, fused parts or gaps G12D): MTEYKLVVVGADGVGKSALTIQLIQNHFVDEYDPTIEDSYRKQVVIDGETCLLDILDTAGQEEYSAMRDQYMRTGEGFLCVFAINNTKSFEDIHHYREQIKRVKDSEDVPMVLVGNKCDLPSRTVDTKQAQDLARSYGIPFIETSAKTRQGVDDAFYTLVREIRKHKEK

System in one series: not listed separately
The experiment in a line: Solubility measurement (DMSO solution precipitation method). It counts as physicochemical. The note with it: aqueous buffer, kinetic from dmso stock, McIlvaine buffer pH 4.5, 24 h, read-out: solubility pH 4.5. As to the method:
A 10 mM DMSO stock solution of a test compound is used to determine its aq. solubility. The DMSO solution is diluted with an aq. medium (McIlvaine buffer with pH=4.5 or 6.8) to a final concentration of 250 μM. After 24 h of shaking at ambient temperature a potentially formed precipitate is removed by filtration. The concentration of the test compound in the filtrate is determined by LC-UV methods by calibrating the signal to the signal of a reference solution with complete dissolution of the test compound in acetonitrile/water (1:1) with known concentration.
On to `C[C@H](Oc1nc(-c2noc3c2CCC[C@@]32CCCc3sc(N)c(C#N)c32)nc2c1n(C)c(=O)n2[C@H]1CO[C@@H](C)C1)[C@@H]1CCCN1C` [II-5], for which the solubility at 24 h was above 142 µg/mL.
Consider `CO[C@H]1C[C@@H]([C@H](C)Oc2nc(-c3onc4c3CCC[C@@]43CCCc4sc(N)c(C#N)c43)nc3c2n(C)c(=O)n3[C@@H]2CCOC2)N(C)C1` [I-2], for which the solubility at 24 h is above 159 µg/mL.
Still for that read-out and setting: to `Cc1nn([C@@H]2CCOC2)c2nc(-c3onc4c3CCC[C@@]43CCCc4sc(N)c(C#N)c43)nc(O[C@@H](C)[C@@H]3CCCN3C)c12` [I-42] belongs above 145 µg/mL; to `CO[C@@H]1C[C@@H]([C@H](C)Oc2nc(-c3noc4c3CCC[C@@]43CCCc4sc(N)c(C#N)c43)nc3c2CN(C2COC2)C[C@]32CCOC2)N(C)C1` [II-14], above 149 µg/mL.

The same series, now with this note: aqueous buffer, kinetic from dmso stock, McIlvaine buffer pH 6.8, 24 h, read-out: solubility pH 6.8.
Turning to `C[C@H](Oc1nc(-c2noc3c2CCC[C@@]32CCCc3sc(N)c(C#N)c32)nc2c1n(C)c(=O)n2[C@H]1CO[C@@H](C)C1)[C@@H]1CCCN1C` [II-5], the solubility at 24 h is 107 µg/mL (≈ 166 µM).
Same read-out and setting: next, `CO[C@H]1C[C@@H]([C@H](C)Oc2nc(-c3onc4c3CCC[C@@]43CCCc4sc(N)c(C#N)c43)nc3c2n(C)c(=O)n3[C@@H]2CCOC2)N(C)C1` [I-2]: 115 µg/mL (≈ 174 µM); `Cc1nn([C@@H]2CCOC2)c2nc(-c3onc4c3CCC[C@@]43CCCc4sc(N)c(C#N)c43)nc(O[C@@H](C)[C@@H]3CCCN3C)c12` [I-42]: 112 µg/mL (≈ 182 µM); `CO[C@@H]1C[C@@H]([C@H](C)Oc2nc(-c3noc4c3CCC[C@@]43CCCc4sc(N)c(C#N)c43)nc3c2CN(C2COC2)C[C@]32CCOC2)N(C)C1` [II-14]: 114 µg/mL (≈ 166 µM).

A further series has as its system LOVO cells. The experiment in a line: LOVO CTG proliferation assay (120 h) (CRC, G13D). It counts as cell-based. The note with it: Homo sapiens. As to the method: (§1) LOVO cells (ATCC No. CCL-229) are dispensed into black 384-well plates, flat and clear bottom (Greiner, PNr. 781091) at a density of 1000 cells per well in 60 μl DMEM (Sigma D6429)+10% FCS (fetal calf serum, HyClone, SH30084.03). Cells are incubated overnight at 37° C. in a humidified tissue culture incubator at 5% CO2. Compounds (10 mM stock in DMSO) are added at logarithmic dose series using the ECHO acoustic liquid handler system (Beckman Coulter), normalizing for added DMSO and including DMSO controls. All compound treatments are performed in technical duplicates. For the TO time point measurement, untreated cells are analyzed at the time of compound addition. Plates are incubated for 120 h, and cell viability is measured using CellTiter-Glo luminescent cell viability reagent (Promega product code G7570). Viability (stated as percent of control) is defined as relative luminescence units RLU of each well divided by the RLU of cells in DMSO controls. IC50 values are determined from viability measurements by non-linear regression using a four-parameter model.
(§2) IC50 values of representative compounds according to the invention measured with these assays in the indicated cell lines are presented in Table 46.
`C[C@H](Oc1nc(-c2noc3c2CCC[C@@]32CCCc3sc(N)c(C#N)c32)nc2c1n(C)c(=O)n2[C@H]1CO[C@@H](C)C1)[C@@H]1CCCN1C` [II-5] registered an IC50 of 3 nM.
The same measure, in the same setting: to `CO[C@H]1C[C@@H]([C@H](C)Oc2nc(-c3onc4c3CCC[C@@]43CCCc4sc(N)c(C#N)c43)nc3c2n(C)c(=O)n3[C@@H]2CCOC2)N(C)C1` [I-2] belongs 3 nM; to `Cc1nn([C@@H]2CCOC2)c2nc(-c3onc4c3CCC[C@@]43CCCc4sc(N)c(C#N)c43)nc(O[C@@H](C)[C@@H]3CCCN3C)c12` [I-42], 107 nM.
Still for that read-out and setting: next, `CO[C@@H]1C[C@@H]([C@H](C)Oc2nc(-c3noc4c3CCC[C@@]43CCCc4sc(N)c(C#N)c43)nc3c2CN(C2COC2)C[C@]32CCOC2)N(C)C1` [II-14]: 18 nM.

For the next series, the system named is NCI-H358 cells. The series can be described thus: NCI-H358 CTG proliferation assay (120 h) (NSCLC, G12C). It counts as cell-based. The note with it: Homo sapiens. As to the method:
as §1, with “NCI-H358” for “LOVO”, “CRL-5807)” for “CCL-229)”, “200” for “1000”, “RPMI-1640 ATCC-Formulation (Gibco #A10491)+10%” for “DMEM (Sigma D6429)+10%”, “serum).” for “serum, HyClone, SH30084.03).”
as §2
`C[C@H](Oc1nc(-c2noc3c2CCC[C@@]32CCCc3sc(N)c(C#N)c32)nc2c1n(C)c(=O)n2[C@H]1CO[C@@H](C)C1)[C@@H]1CCCN1C` [II-5] gave an IC50 of 1 nM.
The same measure, in the same setting: next, `CO[C@H]1C[C@@H]([C@H](C)Oc2nc(-c3onc4c3CCC[C@@]43CCCc4sc(N)c(C#N)c43)nc3c2n(C)c(=O)n3[C@@H]2CCOC2)N(C)C1` [I-2]: 43 nM.
Regarding `Cc1nn([C@@H]2CCOC2)c2nc(-c3onc4c3CCC[C@@]43CCCc4sc(N)c(C#N)c43)nc(O[C@@H](C)[C@@H]3CCCN3C)c12` [I-42], the IC50 turned out to be 21 nM. Against the preceding compound, the IC50 is about 2-fold lower.
Same read-out and setting: to `CO[C@@H]1C[C@@H]([C@H](C)Oc2nc(-c3noc4c3CCC[C@@]43CCCc4sc(N)c(C#N)c43)nc3c2CN(C2COC2)C[C@]32CCOC2)N(C)C1` [II-14] belongs 4 nM.

The target of another series is KRAS (G12D)::SOS1 protein-protein interaction (Homo sapiens (Human), UniProt P01116, G12D). The series can be described thus: KRAS::SOS1 AlphaScreen binding assay (KRAS G12D). The settings on record: GDP. An excerpt:
This assay can be used to examine the potency with which compounds according to the invention binding to (mutated) KRAS inhibit the protein-protein interaction between SOS1 and (mutated) KRAS e.g. KRAS G12C, KRAS G12D. […] Low IC50 values in this assay setting are indicative of strong inhibition of protein-protein interaction between SOS1 and KRAS:
These assays measure the inhibitory effect of compounds on KRAS mutant protein-protein interactions using the Alpha Screen technology by Perkin Elmer.
The following (mutant) enzyme forms of KRAS and interacting proteins are used in these assays at the given concentrations:
KRAS (G12D) 1-169, N-terminal 6His-tag, C-terminal avi-tag (Xtal BioStructures, Inc.); final assay concentration 10 nM and SOS1 564-1049, N-terminal 229 GST-tag, TEV cleavage site (Viva Biotech Ltd); final assay concentration 5 nM;
Test compounds dissolved in DMSO are dispensed onto assay plates (Proxiplate 384 PLUS, white, PerkinElmer; 6008289) using an Access Labcyte Workstation with the Labcyte Echo 55x. For the chosen highest assay concentration of 100 μM, 150 nL of compound solution are transferred from a 10 mM DMSO compound stock solution. A series of eleven fivefold dilutions per compound are transferred to the assay plate, compound dilutions are tested in duplicates. DMSO are added as backfill to a total volume of 150 nL.
The assays run on a fully automated robotic system in a darkened room below 100 Lux. To 150 nl of compound dilution 10 μl of a mix including KRAS mutant protein, SOS1 (final assay concentrations see above) and GDP nucleotide (Sigma G7127; final assay concentration 10 μM) in assay buffer (1×PBS, 0.1% BSA, 0.05% Tween 20) are added into columns 1-24.
After 30 minutes incubation time 5 μl of Alpha Screen bead mix in assay buffer are added into columns 1-23. Bead mix consists of AlphaLISA Glutathione Acceptor Beads (PerkinElmer, Cat No AL109) and AlphaScreen Streptavidin Donor Beads (PerkinElmer Cat No 6760002) in assay buffer at a final assay concentration of 10 μg/mL each.
Plates are kept at room temperature in a darkened incubator. After an additional 60 minutes incubation time the signal is measured in a PerkinElmer Envision HTS Multilabel Reader using the AlphaScreen specs from PerkinElmer.
Each plate contains up to 16 wells of a negative control depending on the dilution procedure (platewise or serial) (DMSO instead of test compound; with KRAS mutant::SOS1 GOP mix and bead mix; column 23) and 16 wells of a positive control (DMSO instead of test compound; with KRAS mutant::SOS1 GOP mix w/o bead mix; column 24).
As internal control known inhibitors of KRAS mutant::SOS1 interaction can be measured on each compound plate.
IC50 values are calculated and analyzed with Boehringer Ingelheim's MEGALAB C50 application using a 4 parametric logistic model.
Tables of example compounds disclosed herein contain IC50 values determined using the above assays (see Table 43).
`C[C@H](Oc1nc(-c2noc3c2CCC[C@@]32CCCc3sc(N)c(C#N)c32)nc2c1n(C)c(=O)n2[C@H]1CO[C@@H](C)C1)[C@@H]1CCCN1C` [II-5]: the IC50 amounted to 1 nM.
For the compound `CO[C@H]1C[C@@H]([C@H](C)Oc2nc(-c3onc4c3CCC[C@@]43CCCc4sc(N)c(C#N)c43)nc3c2n(C)c(=O)n3[C@@H]2CCOC2)N(C)C1` [I-2], the IC50 stood at 2 nM.
On the same count and under the same terms, next, `Cc1nn([C@@H]2CCOC2)c2nc(-c3onc4c3CCC[C@@]43CCCc4sc(N)c(C#N)c43)nc(O[C@@H](C)[C@@H]3CCCN3C)c12` [I-42]: 3 nM; `CO[C@@H]1C[C@@H]([C@H](C)Oc2nc(-c3noc4c3CCC[C@@]43CCCc4sc(N)c(C#N)c43)nc3c2CN(C2COC2)C[C@]32CCOC2)N(C)C1` [II-14]: 1 nM.

System in another series: not listed separately
The series can be described thus: Plasma protein binding assay (PPB), equilibrium dialysis. In kind it is in vitro ADME. The settings on record: bovine, 10% FCS in PBS, read-out: PPB 10% FCS (% fu). On the procedure: Binding of test compounds to plasma was determined using equilibrium dialysis (ED) and quantitative mass spectrometry interfaced with liquid chromatography (LC-MS). In brief, ED was performed with dialysis devices consisting of two chambers separated by a semipermeable membrane with a molecular weight cut-off of 5-10 kg/mol. One chamber was filled with 10% FCS in PBS containing 1-10 μmol/L test compound and the other chamber was filled with phosphate-buffer saline (PBS) with or without dextran. The dialysis chamber was incubated for 3-5 hours at 37° C. After incubation, protein was precipitated from aliquots of each chamber and the concentration of test compound in the supernatant of the plasma-containing compartment (cserum) and of the buffer-containing compartment (cbuffer) was determined by LC-MS. The fraction of unbound test compound (not bound to plasma) (f) was calculated according to the following equation: […]
Regarding `CO[C@H]1C[C@@H]([C@H](C)Oc2nc(-c3onc4c3CCC[C@@]43CCCc4sc(N)c(C#N)c43)nc3c2n(C)c(=O)n3[C@@H]2CCOC2)N(C)C1` [I-2], the fraction unbound came to 0.15.
Still for that read-out and setting: to `Cc1nn([C@@H]2CCOC2)c2nc(-c3onc4c3CCC[C@@]43CCCc4sc(N)c(C#N)c43)nc(O[C@@H](C)[C@@H]3CCCN3C)c12` [I-42] belongs 0.11; to `CO[C@@H]1C[C@@H]([C@H](C)Oc2nc(-c3noc4c3CCC[C@@]43CCCc4sc(N)c(C#N)c43)nc3c2CN(C2COC2)C[C@]32CCOC2)N(C)C1` [II-14], 0.12.

The values are drawn from US20250019385A1, “SPIROCYCLIC ANNULATED 2-AMINO-3-CYANO THIOPHENES AND DERIVATIVES FOR THE TREATMENT OF CANCER” (Boehringer Ingelheim International GmbH, priority 2023, published 2025).
